Measurements published in patent US9999619B2, “Piperidin-4-yl azetidine derivatives as JAK1 inhibitors” (Incyte Corporation, priority 2010, dated 2018).

Legend:
Type in all cases: biochemical
[1] = molecular target: human JAK1 (a.a. 837-1142) (Homo sapiens, UniProt P23458); experiment: In vitro JAK kinase assay (HTRF, phosphorylation of a biotinylated peptide), JAK1; settings: measured at 1 mM ATP
How it was run: (§1)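 N-terminal His-tagged catalytic domains, baculovirus-expressed in insect cells, phosphorylated a biotinylated peptide for 1 hr at room temperature. EDTA stop was followed by SA-APC and Eu-Py20 antibody for 40 minutes, with phosphopeptide read by HTRF.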

[2] = molecular target: human JAK1 (a.a. 837-1142); experiment: as above; settings: ratio of JAK2 IC50 to JAK1 IC50, measured at 1 mM ATP
How it was run: as §1

Jak2 (a.a. 828-1132) = Jak2 (a.a. 828-1132) (Homo sapiens (Human), UniProt O60674); experiment: In vitro JAK kinase assay (HTRF, phosphorylation of a biotinylated peptide), JAK2; settings: measured at 1 mM ATP
Sequence of Jak2 (a.a. 828-1132) (O60674 828-1132): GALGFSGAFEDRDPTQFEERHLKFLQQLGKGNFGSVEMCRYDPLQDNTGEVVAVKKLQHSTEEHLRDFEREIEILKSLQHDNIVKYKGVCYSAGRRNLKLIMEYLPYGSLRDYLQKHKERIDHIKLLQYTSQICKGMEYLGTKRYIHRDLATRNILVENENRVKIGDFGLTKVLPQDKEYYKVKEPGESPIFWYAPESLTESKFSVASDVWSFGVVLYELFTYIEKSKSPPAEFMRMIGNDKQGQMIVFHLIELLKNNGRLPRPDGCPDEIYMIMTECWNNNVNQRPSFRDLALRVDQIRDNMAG
How it was run: as §1

## N#CCC1(n2cc(-c3ncnc4[nH]ccc34)cn2)CN(C2CCN(C(=O)Nc3cc(F)cc(F)c3F)CC2)C1 [Example 173, 4-{3-(cyanomethyl)-3-[4-(7H-pyrrolo[2,3-d]pyrimidin-4-yl)-1H-pyrazol-1-yl]azetidin-1-yl}-N-(2,3,5-trifluorophenyl)piperidine-1-carboxamide]
[1]
  IC50: 0.005 to 0.02 µM
[2]
  IC50 Ratio JAK2/JAK1: 5.7
Jak2 (a.a. 828-1132)
  IC50: 0.01 to 0.05 µM

## N#CCC1(n2cc(-c3ncnc4[nH]ccc34)cn2)CN(C2CCN(C(=O)Nc3cc(F)ccc3F)CC2)C1 [Example 174, 4-{3-(cyanomethyl)-3-[4-(7H-pyrrolo[2,3-d]pyrimidin-4-yl)-1H-pyrazol-1-yl]azetidin-1-yl}-N-(2,5-difluorophenyl)piperidine-1-carboxamide]
[1]
  IC50: ≤ 0.005 µM
[2]
  IC50 Ratio JAK2/JAK1: 7.1
Jak2 (a.a. 828-1132)
  IC50: ≤ 0.01 µM

## N#CCC1(n2cc(-c3ncnc4[nH]ccc34)cn2)CN(C2CCN(C(=O)Nc3cc(F)cc(F)c3)CC2)C1 [Example 175, 4-{3-(cyanomethyl)-3-[4-(7H-pyrrolo[2,3-d]pyrimidin-4-yl)-1H-pyrazol-1-yl]azetidin-1-yl}-N-(3,5-difluorophenyl)piperidine-1-carboxamide]
[1]
  IC50: ≤ 0.005 µM
[2]
  IC50 Ratio JAK2/JAK1: 3.6
Jak2 (a.a. 828-1132)
  IC50: ≤ 0.01 µM

## N#CCC1(n2cc(-c3ncnc4[nH]ccc34)cn2)CN(C2CCN(C(=O)Nc3ccc(F)c(F)c3)CC2)C1 [Example 176, 4-{3-(cyanomethyl)-3-[4-(7H-pyrrolo[2,3-d]pyrimidin-4-yl)-1H-pyrazol-1-yl]azetidin-1-yl}-N-(3,4-difluorophenyl)piperidine-1-carboxamide]
[1]
  IC50: ≤ 0.005 µM
[2]
  IC50 Ratio JAK2/JAK1: 5.1
Jak2 (a.a. 828-1132)
  IC50: ≤ 0.01 µM

## N#CCC1(n2cc(-c3ncnc4[nH]ccc34)cn2)CN(C2CCN(C(=O)Nc3cccc(Cl)c3F)CC2)C1 [Example 177, N-(3-chloro-2-fluorophenyl)-4-{3-(cyanomethyl)-3-[4-(7H-pyrrolo[2,3-d]pyrimidin-4-yl)-1H-pyrazol-1-yl]azetidin-1-yl}piperidine-1-carboxamide]
[1]
  IC50: ≤ 0.005 µM
[2]
  IC50 Ratio JAK2/JAK1: 8.5
Jak2 (a.a. 828-1132)
  IC50: ≤ 0.01 µM

## N#CCC1(n2cc(-c3ncnc4[nH]ccc34)cn2)CN(C2CCN(C(=O)Nc3ccc(Cl)cc3F)CC2)C1 [Example 178, N-(4-chloro-2-fluorophenyl)-4-{3-(cyanomethyl)-3-[4-(7H-pyrrolo[2,3-d]pyrimidin-4-yl)-1H-pyrazol-1-yl]azetidin-1-yl}piperidine-1-carboxamide]
[1]
  IC50: ≤ 0.005 µM
[2]
  IC50 Ratio JAK2/JAK1: 6.5
Jak2 (a.a. 828-1132)
  IC50: ≤ 0.01 µM

## N#CCC1(n2cc(-c3ncnc4[nH]ccc34)cn2)CN(C2CCN(C(=O)Nc3ccsc3)CC2)C1 [Example 179, 4-{3-(cyanomethyl)-3-[4-(7H-pyrrolo[2,3-d]pyrimidin-4-yl)-1H-pyrazol-1-yl]azetidin-1-yl}-N-3-thienylpiperidine-1-carboxamide]
[1]
  IC50: 0.005 to 0.02 µM
[2]
  IC50 Ratio JAK2/JAK1: 3.8
Jak2 (a.a. 828-1132)
  IC50: 0.05 to 0.1 µM

## COc1ccccc1NC(=O)N1CCC(N2CC(CC#N)(n3cc(-c4ncnc5[nH]ccc45)cn3)C2)CC1 [Example 180, 4-{3-(cyanomethyl)-3-[4-(7H-pyrrolo[2,3-d]pyrimidin-4-yl)-1H-pyrazol-1-yl]azetidin-1-yl}-N-(2-methoxyphenyl)piperidine-1-carboxamide]
[1]
  IC50: ≤ 0.005 µM
[2]
  IC50 Ratio JAK2/JAK1: 4.0
Jak2 (a.a. 828-1132)
  IC50: 0.01 to 0.05 µM

## COc1cccc(NC(=O)N2CCC(N3CC(CC#N)(n4cc(-c5ncnc6[nH]ccc56)cn4)C3)CC2)c1 [Example 181, 4-{3-(cyanomethyl)-3-[4-(7H-pyrrolo[2,3-d]pyrimidin-4-yl)-1H-pyrazol-1-yl]azetidin-1-yl}-N-(3-methoxyphenyl)piperidine-1-carboxamide]
[1]
  IC50: ≤ 0.005 µM
[2]
  IC50 Ratio JAK2/JAK1: 4.9
Jak2 (a.a. 828-1132)
  IC50: 0.01 to 0.05 µM

## N#CCC1(n2cc(-c3ncnc4[nH]ccc34)cn2)CN(C2CCN(C(=O)Nc3ccc(OC(F)(F)F)cc3)CC2)C1 [Example 182, 4-{3-(cyanomethyl)-3-[4-(7H-pyrrolo[2,3-d]pyrimidin-4-yl)-1H-pyrazol-1-yl]azetidin-1-yl}-N-[4-(trifluoromethoxy)phenyl]piperidine-1-carboxamide]
[1]
  IC50: 0.005 to 0.02 µM
[2]
  IC50 Ratio JAK2/JAK1: 3.7
Jak2 (a.a. 828-1132)
  IC50: 0.01 to 0.05 µM

## N#CCC1(n2cc(-c3ncnc4[nH]ccc34)cn2)CN(C2CCN(C(=O)Nc3cccc(Cl)c3)CC2)C1 [Example 183, N-(3-chlorophenyl)-4-{3-(cyanomethyl)-3-[4-(7H-pyrrolo[2,3-d]pyrimidin-4-yl)-1H-pyrazol-1-yl]azetidin-1-yl}piperidine-1-carboxamide]
[1]
  IC50: ≤ 0.005 µM
[2]
  IC50 Ratio JAK2/JAK1: 3.8
Jak2 (a.a. 828-1132)
  IC50: ≤ 0.01 µM

## N#CCC1(n2cc(-c3ncnc4[nH]ccc34)cn2)CN(C2CCN(C(=O)Nc3ccc(Cl)cc3)CC2)C1 [Example 184, N-(4-chlorophenyl)-4-{3-(cyanomethyl)-3-[4-(7H-pyrrolo[2,3-d]pyrimidin-4-yl)-1H-pyrazol-1-yl]azetidin-1-yl}piperidine-1-carboxamide]
[1]
  IC50: ≤ 0.005 µM
[2]
  IC50 Ratio JAK2/JAK1: 3.9
Jak2 (a.a. 828-1132)
  IC50: ≤ 0.01 µM

## Cc1ccccc1NC(=O)N1CCC(N2CC(CC#N)(n3cc(-c4ncnc5[nH]ccc45)cn3)C2)CC1 [Example 185, 4-{3-(cyanomethyl)-3-[4-(7H-pyrrolo[2,3-d]pyrimidin-4-yl)-1H-pyrazol-1-yl]azetidin-1-yl}-N-(2-methylphenyl)piperidine-1-carboxamide]
[1]
  IC50: ≤ 0.005 µM
[2]
  IC50 Ratio JAK2/JAK1: 9.5
Jak2 (a.a. 828-1132)
  IC50: 0.01 to 0.05 µM

## COc1ccc(OC)c(NC(=O)N2CCC(N3CC(CC#N)(n4cc(-c5ncnc6[nH]ccc56)cn4)C3)CC2)c1 [Example 186, 4-{3-(cyanomethyl)-3-[4-(7H-pyrrolo[2,3-d]pyrimidin-4-yl)-1H-pyrazol-1-yl]azetidin-1-yl}-N-(2,5-dimethoxyphenyl)piperidine-1-carboxamide]
[1]
  IC50: ≤ 0.005 µM
[2]
  IC50 Ratio JAK2/JAK1: 5.5
Jak2 (a.a. 828-1132)
  IC50: 0.01 to 0.05 µM

## Cc1ccc(NC(=O)N2CCC(N3CC(CC#N)(n4cc(-c5ncnc6[nH]ccc56)cn4)C3)CC2)c(C)n1 [Example 189, 4-{3-(cyanomethyl)-3-[4-(7H-pyrrolo[2,3-d]pyrimidin-4-yl)-1H-pyrazol-1-yl]azetidin-1-yl}-N-(2,6-dimethylpyridin-3-yl)piperidine-1-carboxamide]
[1]
  IC50: 0.005 to 0.02 µM
[2]
  IC50 Ratio JAK2/JAK1: 3.5
Jak2 (a.a. 828-1132)
  IC50: 0.01 to 0.05 µM

## N#CCC1(n2cc(-c3ncnc4[nH]ccc34)cn2)CN(C2CCN(C(=O)Nc3nccs3)CC2)C1 [Example 190, 4-{3-(cyanomethyl)-3-[4-(7H-pyrrolo[2,3-d]pyrimidin-4-yl)-1H-pyrazol-1-yl]azetidin-1-yl}-N-1,3-thiazol-2-ylpiperidine-1-carboxamide]
[1]
  IC50: 0.02 to 0.03 µM
[2]
  IC50 Ratio JAK2/JAK1: 2.1
Jak2 (a.a. 828-1132)
  IC50: 0.05 to 0.1 µM

## Cc1csc(NC(=O)N2CCC(N3CC(CC#N)(n4cc(-c5ncnc6[nH]ccc56)cn4)C3)CC2)n1 [Example 191, 4-{3-(cyanomethyl)-3-[4-(7H-pyrrolo[2,3-d]pyrimidin-4-yl)-1H-pyrazol-1-yl]azetidin-1-yl}-N-(4-methyl-1,3-thiazol-2-yl)piperidine-1-carboxamide]
[1]
  IC50: 0.02 to 0.03 µM
[2]
  IC50 Ratio JAK2/JAK1: 1.4
Jak2 (a.a. 828-1132)
  IC50: 0.01 to 0.05 µM

## Cc1nc(NC(=O)N2CCC(N3CC(CC#N)(n4cc(-c5ncnc6[nH]ccc56)cn4)C3)CC2)sc1C [Example 192, 4-{3-(cyanomethyl)-3-[4-(7H-pyrrolo[2,3-d]pyrimidin-4-yl)-1H-pyrazol-1-yl]azetidin-1-yl}-N-(4,5-dimethyl-1,3-thiazol-2-yl)piperidine-1-carboxamide]
[1]
  IC50: 0.005 to 0.02 µM
[2]
  IC50 Ratio JAK2/JAK1: 3.0
Jak2 (a.a. 828-1132)
  IC50: 0.01 to 0.05 µM

## N#CCC1(n2cc(-c3ncnc4[nH]ccc34)cn2)CN(C2CCN(C(=O)Nc3nc4ccccc4s3)CC2)C1 [Example 193, N-1,3-benzothiazol-2-yl-4-{3-(cyanomethyl)-3-[4-(7H-pyrrolo[2,3-d]pyrimidin-4-yl)-1H-pyrazol-1-yl]azetidin-1-yl}piperidine-1-carboxamide]
[1]
  IC50: ≤ 0.005 µM
[2]
  IC50 Ratio JAK2/JAK1: 0.5
Jak2 (a.a. 828-1132)
  IC50: ≤ 0.01 µM

## Cn1c(NC(=O)N2CCC(N3CC(CC#N)(n4cc(-c5ncnc6[nH]ccc56)cn4)C3)CC2)nc2ccccc21 [Example 194, 4-{3-(cyanomethyl)-3-[4-(7H-pyrrolo[2,3-d]pyrimidin-4-yl)-1H-pyrazol-1-yl]azetidin-1-yl}-N-(1-methyl-1H-benzimidazol-2-yl)piperidine-1-carboxamide]
[1]
  IC50: ≤ 0.005 µM
[2]
  IC50 Ratio JAK2/JAK1: 2.2
Jak2 (a.a. 828-1132)
  IC50: ≤ 0.01 µM

## N#CCC1(n2cc(-c3ncnc4[nH]ccc34)cn2)CN(C2CCN(C(=O)Nc3nc(-c4ccc(Cl)cc4)cs3)CC2)C1 [Example 195, N-[4-(4-chlorophenyl)-1,3-thiazol-2-yl]-4-{3-(cyanomethyl)-3-[4-(7H-pyrrolo[2,3-d]pyrimidin-4-yl)-1H-pyrazol-1-yl]azetidin-1-yl}piperidine-1-carboxamide]
[1]
  IC50: 0.02 to 0.03 µM
[2]
  IC50 Ratio JAK2/JAK1: 3.2
Jak2 (a.a. 828-1132)
  IC50: 0.05 to 0.1 µM

## CCn1nccc1NC(=O)N1CCC(N2CC(CC#N)(n3cc(-c4ncnc5[nH]ccc45)cn3)C2)CC1 [Example 196, 4-{3-(cyanomethyl)-3-[4-(7H-pyrrolo[2,3-d]pyrimidin-4-yl)-1H-pyrazol-1-yl]azetidin-1-yl}-N-(1-ethyl-1H-pyrazol-5-yl)piperidine-1-carboxamide]
[1]
  IC50: 0.005 to 0.02 µM
[2]
  IC50 Ratio JAK2/JAK1: 9.9
Jak2 (a.a. 828-1132)
  IC50: 0.05 to 0.1 µM

## Cc1cc(NC(=O)N2CCC(N3CC(CC#N)(n4cc(-c5ncnc6[nH]ccc56)cn4)C3)CC2)n(C)n1 [Example 197, 4-{3-(cyanomethyl)-3-[4-(7H-pyrrolo[2,3-d]pyrimidin-4-yl)-1H-pyrazol-1-yl]azetidin-1-yl}-N-(1,3-dimethyl-1H-pyrazol-5-yl)piperidine-1-carboxamide]
[1]
  IC50: 0.005 to 0.02 µM
[2]
  IC50 Ratio JAK2/JAK1: 3.2
Jak2 (a.a. 828-1132)
  IC50: 0.01 to 0.05 µM
